≈ marks a conversion by molar mass, not a printed value.
Legend:
[1] = target: T1, Voltage-gated inwardly rectifying potassium channel KCNH2 (Homo sapiens, UniProt Q12809); assay: Inhibition of human ERG expressed in CHO cells measured over 5 mins by patch clamp assay
Staphylococcus aureus [2] = assay: Antibacterial activity against Staphylococcus aureus Smith; assay type: functional
Moraxella catarrhalis = assay: Antibacterial activity against Moraxella catarrhalis ATCC 25238; assay type: functional
Acinetobacter baumannii = assay: Antibacterial activity against Acinetobacter baumannii IID876; assay type: functional
Enterococcus faecium = assay: Antibacterial activity against VanA-type vancomycin-resistant Enterococcus faecium A2373; assay type: functional
[3] = target: T1, Voltage-gated inwardly rectifying potassium channel KCNH2; assay: Displacement of MK499 from human ERG
Enterococcus faecalis = assay: Antibacterial activity against Enterococcus faecalis ATCC 29212; assay type: functional
Pseudomonas aeruginosa = assay: Antibacterial activity against Pseudomonas aeruginosa PAO1; assay type: functional
Streptococcus pneumoniae [4] = assay: Antibacterial activity against Streptococcus pneumoniae IID554; assay type: functional
Haemophilus influenzae = assay: Antibacterial activity against Haemophilus influenzae ATCC 49247; assay type: functional
Escherichia coli = assay: Antibacterial activity against Escherichia coli ATCC 25922; assay type: functional
Staphylococcus aureus [5] = assay: Ratio of MIC for quinolone-resistant Staphylococcus aureus MS5935 to MIC for quinolone-sensitive Staphylococcus aureus; assay type: functional
[6] = Plasma clearance in C57BL/6 mouse at 1 mg/kg, iv and 2 mg/kg, po; assay type: ADME, organism-based
[7] = Volume of distribution at steady state in C57BL/6 mouse at 1 mg/kg, iv and 2 mg/kg, po; assay type: ADME, organism-based; conditions: in vivo, read-out: Vdss
Staphylococcus aureus [8] = assay: Antibacterial activity against Staphylococcus aureus Smith infected in po dosed CD1 mouse administered at 0.5 hrs post infection; assay type: functional
[9] = Oral bioavailability in C57BL/6 mouse at 2 mg/kg; assay type: ADME, organism-based; conditions: in vivo
Staphylococcus aureus [10] = assay: Antibacterial activity against Staphylococcus aureus Smith infected in iv dosed CD1 mouse administered at 0.5 hrs post infection; assay type: functional
Mus musculus = assay: Dose normalized AUC in C57BL/6 mouse at 1 mg/kg, iv and 2 mg/kg, po; assay type: ADME, organism-based; conditions: in vivo
[11] = Half life in C57BL/6 mouse at 1 mg/kg, iv and 2 mg/kg, po; assay type: ADME, organism-based; conditions: in vivo
Staphylococcus aureus [12] = assay: Antibacterial activity against quinolone-resistant Staphylococcus aureus MS5935; assay type: functional
Staphylococcus aureus [13] = assay: Antibacterial activity against quinolone-sensitive Staphylococcus aureus MS5935
Streptococcus pneumoniae [14] = assay: Antibacterial activity against Streptococcus pneumoniae; assay type: functional
Staphylococcus aureus [15] = assay: Antibacterial activity against Staphylococcus aureus; assay type: functional
Staphylococcus aureus [16] = assay: Antibacterial activity against Staphylococcus aureus Smith infected in iv dosed ICR mouse assessed as survival rate administered at 1 hr post infection measured over 7 days; assay type: functional
Staphylococcus aureus [17] = assay: Antibacterial activity against Staphylococcus aureus Smith infected in po dosed ICR mouse assessed as survival rate administered at 1 hr post infection measured over 7 days; assay type: functional
[18] = Staphylococcus aureus, Smith, read-out: MIC
[19] = Moraxella catarrhalis, ATCC 25238, read-out: MIC
[20] = Acinetobacter baumannii, IID876, read-out: MIC
[21] = Enterococcus faecium, A2373, read-out: MIC
[22] = Enterococcus faecalis, ATCC 29212, read-out: MIC
[23] = Pseudomonas aeruginosa, PAO1, read-out: MIC
[24] = Streptococcus pneumoniae, IID554, read-out: MIC
[25] = Haemophilus influenzae, ATCC 49247, read-out: MIC
[26] = Escherichia coli, ATCC 25922, read-out: MIC

T1 sequence (Q12809 whole entry): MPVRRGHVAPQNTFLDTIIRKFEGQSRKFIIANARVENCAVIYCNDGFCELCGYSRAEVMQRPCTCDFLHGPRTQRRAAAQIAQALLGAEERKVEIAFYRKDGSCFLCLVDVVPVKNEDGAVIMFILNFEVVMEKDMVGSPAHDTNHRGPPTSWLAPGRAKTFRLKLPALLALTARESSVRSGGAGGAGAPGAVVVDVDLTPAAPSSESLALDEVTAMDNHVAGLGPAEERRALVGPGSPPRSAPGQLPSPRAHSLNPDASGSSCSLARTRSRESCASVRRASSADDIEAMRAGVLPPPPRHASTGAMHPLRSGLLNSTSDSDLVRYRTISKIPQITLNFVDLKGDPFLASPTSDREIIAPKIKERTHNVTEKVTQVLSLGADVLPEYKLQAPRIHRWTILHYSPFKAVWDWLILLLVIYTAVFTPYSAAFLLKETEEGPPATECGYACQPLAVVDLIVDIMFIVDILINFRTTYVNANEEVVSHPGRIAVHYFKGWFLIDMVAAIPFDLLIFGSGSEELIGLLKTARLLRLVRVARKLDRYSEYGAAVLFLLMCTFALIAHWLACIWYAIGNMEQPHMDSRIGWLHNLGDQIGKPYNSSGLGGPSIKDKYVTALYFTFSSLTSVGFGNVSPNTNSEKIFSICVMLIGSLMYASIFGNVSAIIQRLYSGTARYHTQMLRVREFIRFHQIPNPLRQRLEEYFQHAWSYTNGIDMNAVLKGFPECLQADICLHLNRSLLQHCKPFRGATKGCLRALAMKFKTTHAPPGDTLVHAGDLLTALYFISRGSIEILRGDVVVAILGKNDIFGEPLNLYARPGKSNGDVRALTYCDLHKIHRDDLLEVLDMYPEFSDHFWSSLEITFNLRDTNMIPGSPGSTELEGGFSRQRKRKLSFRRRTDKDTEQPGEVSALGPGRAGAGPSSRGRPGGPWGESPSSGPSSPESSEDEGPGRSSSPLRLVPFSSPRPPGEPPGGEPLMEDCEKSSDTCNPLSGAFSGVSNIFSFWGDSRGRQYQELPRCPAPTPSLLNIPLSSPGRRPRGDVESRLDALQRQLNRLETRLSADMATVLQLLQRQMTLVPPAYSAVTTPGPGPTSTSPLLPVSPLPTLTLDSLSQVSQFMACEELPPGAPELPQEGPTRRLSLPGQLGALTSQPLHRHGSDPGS

SMILES	IC50 [1]	MIC (Staphylococcus aureus [2]; [18])	MIC (Moraxella catarrhalis; [19])	MIC (Acinetobacter baumannii; [20])	MIC (Enterococcus faecium; [21])	IC50 [3]	MIC (Enterococcus faecalis; [22])	MIC (Pseudomonas aeruginosa; [23])	MIC (Streptococcus pneumoniae [4]; [24])	MIC (Haemophilus influenzae; [25])	MIC (Escherichia coli; [26])	Ratio (Staphylococcus aureus [5])	other results
O=c1ccc2ncc(F)c3c2n1C[C@@]3(O)CC12CCC(NCc3cc4c(cn3)OCCS4(=O)=O)(CC1)CO2	> 60 µM	8 µg/mL (≈ 14.7 µM)	32 µg/mL (≈ 59 µM)	32 µg/mL (≈ 59 µM)	32 µg/mL (≈ 59 µM)	> 60 µM	32 µg/mL (≈ 59 µM)	32 µg/mL (≈ 59 µM)	4 µg/mL (≈ 7.37 µM)	32 µg/mL (≈ 59 µM)	32 µg/mL (≈ 59 µM)	<4	
O=c1ccc2ncc(F)c3c2n1C[C@@]3(O)CC12CCC(NCc3cc4c(cn3)S(=O)(=O)CCO4)(CC1)CO2	> 60 µM	8 µg/mL (≈ 14.7 µM)	32 µg/mL (≈ 59 µM)	32 µg/mL (≈ 59 µM)	32 µg/mL (≈ 59 µM)	> 60 µM	32 µg/mL (≈ 59 µM)	32 µg/mL (≈ 59 µM)	32 µg/mL (≈ 59 µM)	32 µg/mL (≈ 59 µM)	32 µg/mL (≈ 59 µM)	<4	
O=C1COc2cc(F)c(CNC34CCC(C[C@]5(O)Cn6c(=O)ccc7ncc(F)c5c76)(CC3)OC4)nc2N1	333 µM	0.5 µg/mL (≈ 0.951 µM)		8 µg/mL (≈ 15.2 µM)	16 µg/mL (≈ 30.4 µM)	> 60 µM	4 µg/mL (≈ 7.61 µM)	16 µg/mL (≈ 30.4 µM)	2 µg/mL (≈ 3.81 µM)		8 µg/mL (≈ 15.2 µM)	<4	clearance [6]: 15 mL/min/kg; Vd [7]: 1.3 L/kg; ED90 (Staphylococcus aureus [8]): 15 mg/kg; bioavailability [9]: 39%; ED90 (Staphylococcus aureus [10]): 12 mg/kg; AUC/dose (Mus musculus): 2.1 µM·h/mg/kg; half-life [11]: 1.7 h
C[C@H]1COc2c(N3CCN(C)CC3)c(F)cc3c(=O)c(C(=O)O)cn1c23.C[C@H]1COc2c(N3CCN(C)CC3)c(F)cc3c(=O)c(C(=O)O)cn1c23.O [LEVOFLOXACIN]												>64	MIC (Staphylococcus aureus [12]): > 16 µg/mL; MIC (Staphylococcus aureus [13]): 0.25 µg/mL
CC1COc2cc(CNC34CCC(C[C@]5(O)Cn6c(=O)ccc7ncc(F)c5c76)(CC3)OC4)ncc2O1 (stereo in doubt; 20)	> 60 µM	1 µg/mL (≈ 1.97 µM)				> 60 µM			2 µg/mL (≈ 3.93 µM)				MIC (Moraxella catarrhalis): 2 µg/mL (≈ 3.93 µM); MIC (Acinetobacter baumannii): 16 µg/mL (≈ 31.5 µM); MIC (Enterococcus faecium): 32 µg/mL (≈ 62.9 µM); MIC (Enterococcus faecalis): 8 µg/mL (≈ 15.7 µM); MIC (Pseudomonas aeruginosa): 32 µg/mL (≈ 62.9 µM); MIC (Haemophilus influenzae): 16 µg/mL (≈ 31.5 µM); MIC (Escherichia coli): 32 µg/mL (≈ 62.9 µM)
O=c1ccc2ncc(=O)n3c2n1C[C@H]3CN1CCC(NCc2cc3c(cn2)OCCC3)CC1 [GEPOTIDACIN]													MIC90 (Streptococcus pneumoniae [14]): 0.25 µg/mL (≈ 0.557 µM); MIC90 (Staphylococcus aureus [15]): 0.5 µg/mL (≈ 1.11 µM)
Nc1cc2c(nc1CNC13CCC(C[C@]4(O)Cn5c(=O)ccc6ncc(F)c4c65)(CC1)OC3)NC(=O)CO2		8 µg/mL (≈ 15.3 µM)	4 µg/mL (≈ 7.65 µM)	32 µg/mL (≈ 61.2 µM)	32 µg/mL (≈ 61.2 µM)		32 µg/mL (≈ 61.2 µM)	32 µg/mL (≈ 61.2 µM)	32 µg/mL (≈ 61.2 µM)	32 µg/mL (≈ 61.2 µM)	32 µg/mL (≈ 61.2 µM)	<4	
O=c1ccc2ncc(F)c3c2n1C[C@@]3(O)CC12CCC(NCc3ccc4c(n3)OCCN4)(CC1)CO2		8 µg/mL (≈ 16.2 µM)	32 µg/mL (≈ 64.8 µM)	32 µg/mL (≈ 64.8 µM)	32 µg/mL (≈ 64.8 µM)		32 µg/mL (≈ 64.8 µM)	32 µg/mL (≈ 64.8 µM)	8 µg/mL (≈ 16.2 µM)	32 µg/mL (≈ 64.8 µM)	32 µg/mL (≈ 64.8 µM)	<4	
O=C1COc2cc(Cl)c(CNC34CCC(C[C@]5(O)Cn6c(=O)ccc7ncc(F)c5c76)(CC3)OC4)nc2N1	126 µM	0.25 µg/mL (≈ 0.461 µM)		2 µg/mL (≈ 3.69 µM)	16 µg/mL (≈ 29.5 µM)	27.7 µM	8 µg/mL (≈ 14.8 µM)	16 µg/mL (≈ 29.5 µM)	2 µg/mL (≈ 3.69 µM)		8 µg/mL (≈ 14.8 µM)	<4	clearance [6]: 38 mL/min/kg; Vd [7]: 7 L/kg; ED90 (Staphylococcus aureus [8]): 29 mg/kg; bioavailability [9]: 51%; ED90 (Staphylococcus aureus [10]): 24 mg/kg; AUC/dose (Mus musculus): 0.7 µM·h/mg/kg; half-life [11]: 3.5 h
CC1COc2cc(CNC34CCC(C[C@]5(O)Cn6c(=O)ccc7ncc(F)c5c76)(CC3)OC4)ncc2O1 (stereo in doubt; 19)			4 µg/mL (≈ 7.87 µM)	16 µg/mL (≈ 31.5 µM)	32 µg/mL (≈ 62.9 µM)		16 µg/mL (≈ 31.5 µM)	32 µg/mL (≈ 62.9 µM)		32 µg/mL (≈ 62.9 µM)	32 µg/mL (≈ 62.9 µM)	<4	MIC (Staphylococcus aureus [2]): 2 µg/mL (≈ 3.93 µM); MIC (Streptococcus pneumoniae [4]): 4 µg/mL (≈ 7.87 µM)
O=c1ccc2ncc(F)c3c2n1C[C@@]3(O)CC12CCC(NCc3cc4c(cn3)OCCO4)(CC1)CO2		0.5 µg/mL (≈ 1.01 µM)		8 µg/mL (≈ 16.2 µM)	16 µg/mL (≈ 32.4 µM)		8 µg/mL (≈ 16.2 µM)	16 µg/mL (≈ 32.4 µM)	2 µg/mL (≈ 4.04 µM)		16 µg/mL (≈ 32.4 µM)		clearance [6]: 47 mL/min/kg; Vd [7]: 17 L/kg; bioavailability [9]: 60%; ED90 (Staphylococcus aureus [10]): 12 mg/kg; AUC/dose (Mus musculus): 0.5 µM·h/mg/kg; half-life [11]: 2 h; ED50 (Staphylococcus aureus [16]): 11 mg/kg; ED50 (Staphylococcus aureus [17]): 5.1 mg/kg
CN1CCOc2ccc(CNC34CCC(C[C@]5(O)Cn6c(=O)ccc7ncc(F)c5c76)(CC3)OC4)nc21	> 60 µM	4 µg/mL (≈ 7.88 µM)		32 µg/mL (≈ 63 µM)	32 µg/mL (≈ 63 µM)	> 60 µM	32 µg/mL (≈ 63 µM)	32 µg/mL (≈ 63 µM)	8 µg/mL (≈ 15.8 µM)		32 µg/mL (≈ 63 µM)	<4	
O=C1COc2cnc(CNC34CCC(C[C@]5(O)Cn6c(=O)ccc7ncc(F)c5c76)(CC3)OC4)nc2N1	30 µM	0.5 µg/mL (≈ 0.983 µM)		32 µg/mL (≈ 62.9 µM)	16 µg/mL (≈ 31.5 µM)		4 µg/mL (≈ 7.87 µM)	16 µg/mL (≈ 31.5 µM)	2 µg/mL (≈ 3.93 µM)		8 µg/mL (≈ 15.7 µM)	<4	
CCc1cc2c(nc1CNC13CCC(C[C@]4(O)Cn5c(=O)ccc6ncc(F)c4c65)(CC1)OC3)NC(=O)CO2	> 60 µM	8 µg/mL (≈ 14.9 µM)	1 µg/mL (≈ 1.87 µM)	1 µg/mL (≈ 1.87 µM)	32 µg/mL (≈ 59.7 µM)	> 60 µM	32 µg/mL (≈ 59.7 µM)	32 µg/mL (≈ 59.7 µM)	32 µg/mL (≈ 59.7 µM)	16 µg/mL (≈ 29.9 µM)	16 µg/mL (≈ 29.9 µM)	<4	
O=C1COc2cc(OC(=O)c3ccccc3)c(CNC34CCC(C[C@]5(O)Cn6c(=O)ccc7ncc(F)c5c76)(CC3)OC4)nc2N1	30.5 µM	8 µg/mL (≈ 12.7 µM)	32 µg/mL (≈ 51 µM)	32 µg/mL (≈ 51 µM)	32 µg/mL (≈ 51 µM)		32 µg/mL (≈ 51 µM)	32 µg/mL (≈ 51 µM)	32 µg/mL (≈ 51 µM)	32 µg/mL (≈ 51 µM)	32 µg/mL (≈ 51 µM)	<4	
O=c1ccc2ncc(F)c3c2n1C[C@@]3(O)CC12CCC(NCc3ccc4c(n3)NCCN4)(CC1)CO2	> 60 µM	8 µg/mL (≈ 16.2 µM)	32 µg/mL (≈ 65 µM)	32 µg/mL (≈ 65 µM)	32 µg/mL (≈ 65 µM)	> 60 µM	32 µg/mL (≈ 65 µM)	32 µg/mL (≈ 65 µM)	16 µg/mL (≈ 32.5 µM)		32 µg/mL (≈ 65 µM)	<4	

Source: ChEMBL document CHEMBL3425423, “Hydroxy tricyclic 1,5-naphthyridinone oxabicyclooctane-linked novel bacterial topoisomerase inhibitors as broad-spectrum antibacterial agents-SAR of RHS moiety (Part-3)” (Bioorg Med Chem Lett, 2015)
